# Experimental data from patent publication US20100183600A1, “RAF Inhibitors and Their Uses” (ARQULE, INC., priority 2008, published 2010).
# Counter-ions that a name gives are not always drawn.
# Assays:
# mutant B-RAF = biological target: T1, mutant B-RAF (Homo sapiens, UniProt P15056, V600E); experiment: Measurement of RAF activity (MEK-1 phosphorylation); type: biochemical; details: 50 μM ATP, MEK-1 substrate; read-out: Mut-B-Raf IC50
# T1 construct: purchased Upstate (Charlottesville, Va.)
# Protocol: Materials: The RAF kinases and the anti-phospho MEK1/2 antibody were from Upstate (Charlottesville, Va.). The RAF substrate used was full length N-terminal GST-MEK-1, which was expressed in E. coli and purified in-house by HPLC. All proteins were aliquoted and stored at −80° C. Superblock™ in phosphate buffered saline (PBS) blocking reagent was form Pierce (cat. #37515). ATP was from Roche (cat. # 19035722). Alkaline Phosphatase-tagged goat anti-rabbit antibody was from Pierce (cat. # 31340).
# Methods: All RAF biochemical assays were performed using an assay buffer containing 20 mM MOPS, 5 mM EGTA, 37.5 mM MgCl2, 1 mM DTT and 50 μM ATP. There was 6.25 ng/well mutant B-RAF and 7.5 ng/well MEK-1 in the final assay conditions. Compounds were serially diluted in assay buffer containing 1% DMSO and 20 μl of test compound at a concentration 3-fold more than the final concentration, and were added to a polypropylene V-well reaction plate. Vehicle control wells received buffer only with DMSO at equivalent concentrations to the test wells. […] These reaction plates were incubated at room temperature for 30 minutes. Capture of MEK-1 was initiated by transferring 50 μl of the reaction mixture to a Nunc Maxisorp™ microplate that is designed for non-specific protein capture. After 30 minute capture of MEK-1 at room temperature, this plate was washed with TBST (6×200 μL/well) to fully terminate the reaction. The plate was then blocked for 1 hour by the addition of 100 μl/well of Superblock™ in phosphate buffered saline (PBS) blocking reagent. Plate was again washed with TBST (6 times with 200 μl/well), followed by the addition of 70 μl/well of Upstate anti-phospho MEK ½ diluted 1:1000 in Pierce Superblock (PBS). After a 60 minute incubation, this plate was washed with TBST (6 times with 200 μl/well), and 70 μl of the secondary antibody (Pierce Alkaline Phosphatase tagged goat anti-rabbit) prepared at 1:4000 in Superblock, were added. After a 45 minute incubation at room temperature, the wells of the microplate were washed with TBST (6 times with 200 μl/well), and thereafter 100 μl/well of Attophos™ fluorescent alkaline phosphatase substrate was added according to the manufacturer's instructions (JBL Scientific). Fluorescence was read on a Perkin Elmer Envision multilabel reader, using the following filters: Excitation Filter: CFP430 nM, Emission Filter: Emission Filter 579 nM.
# p-Erk (A375) = experiment: Cell-based phosphorylation assay with electroblotting readout; parameters: species or system human; details: Homo sapiens, A-375; A375 cells, 1 hr
# Description: Compounds of the present invention have been screened for their ability to inhibit all isoforms, both wild-type and mutant of RAF kinases (A-RAF, B-RAF and C-RAF) in general, and the mutant B-RAF (V600E) in particular in human cancer cells. A375 is a human melanoma cell line that harbors the most common B-RAF mutation-V600E found in human cancers. The ability of compounds to inhibit RAF kinases in this assay is correlated with the reduction of MEK and ERK phosphorylation, and is therefore a direct indicator of potential in vivo therapeutic activity.
# Materials: A375 cells from ATCC were maintained at 37° C., 5% CO2 in DMEM media supplemented with 10% fetal bovine serum, penicillin/streptomycin and fungizone. (Invitrogen)
# Methods: Test compounds were dissolved and diluted 1:1000 in DMSO. A375 cells were seeded in six-well tissue culture plates at 5-8×10^5 per well and cultured at 37° C. for 24 h. Cells were incubated with compounds for one hour before being lysed in EPage™ loading buffer (Invitrogen). Lysates were electrophoresed on 8% EPage™ gels and transferred to polyvinylidene difluoride membranes. After incubations with primary and secondary antibodies, the immunostained proteins were detected and quantitated by an Odyssey infrared imager (LI-COR). Analysis was performed by non-linear regression to generate a dose response curve. The calculated IC50 value was the concentration of the test compound that causes a 50% decrease in phospho-MEK and phospho-ERK levels. The primary antibodies used were anti-MEK (Stressgen), anti-ERK (BD Biosciences), anti-phospho-ERK and anti-phospho-MEK (Cell Signaling). The secondary antibodies used were IRDYE800 anti-rabbit, IRDYE 800 anti-mouse (Rockland), AlexaFluor680 anti-mouse and AlexaFluoro680 anti-rabbit (Invitrogen).
# A375 cells were treated with 0, 12, 37, 111, 333 and 1000 nM of indicated compounds for 1 hr. The levels of Phospho-ERK and total-ERK were accessed by immunoblotting.
# A375 = experiment: Cell growth inhibition assay (MTS); type: cell-based; details: Homo sapiens, A-375, 72 h, A375, 72 hours
# Protocol: (§1) Compounds of the present invention have been tested for activity against a variety of cancer cell lines. The ability of compounds to inhibit cell growth in this assay is correlated with the reduction of dehydrogenase enzyme activity found in metabolically active cells.
# (§2) Materials: A large variety of cancer cells from ATCC were maintained at 37° C., 5% CO2 in DMEM media supplemented with 10% fetal bovine serum, penicillin/streptomycin and fungizone (Invitrogen). NCM460 (Incell), a normal colon epithelial cell line, and human mammary epithelial cells (Cambrex) were maintained at 37° C., 5% CO2 in DMEM and HEBM media (Cambrex), respectively.
# (§3) Methods: Test compounds were dissolved and diluted to 300× in DMSO then diluted 1:40 in DMEM. Cells were seeded into 96-well tissue culture plates at 1-5×10^3 per well and cultured at 37° C. for 24 h. Cells were incubated with test compounds for 72 hours followed by incubation with tetrazolium compound (3-(4,5-dimethylthiazol-2-yl)-5-(3-carboxymethoxyphenyl)-2-(4-sulfophenyl)-2H-tetrazolium, inner salt; MTS) and the electron coupling reagent, phenazine methosulfate (PMS) for 4 hr. […] The measurement of the absorbance of the formazan was assessed using an ENVISION™ (Perkin Elmer) microplate reader at 492 nm. The calculated IC50 value is the concentration of the test compound that causes a 50% decrease in the absorbance.
# DLD-1 = experiment: Cell growth inhibition assay (MTS); type: cell-based; details: Homo sapiens; DLD-1, 72 hours
# Protocol: as §1, §2, §3
# RKO = experiment: Cell growth inhibition assay (MTS); type: cell-based; details: Homo sapiens, 72 hours
# Protocol: as §1, §2, §3
# SK-MEL-28 = experiment: Cell growth inhibition assay (MTS); type: cell-based; details: Homo sapiens; SK-MEL-28, 72 hours
# Protocol: as §1, §2, §3
# SK-MEL-2 = experiment: Cell growth inhibition assay (MTS); type: cell-based; details: Homo sapiens; SK-MEL-2, 72 hours
# Protocol: as §1, §2, §3
# WM-266-4 = experiment: Cell growth inhibition assay (MTS); type: cell-based; details: Homo sapiens; WM-266-4, 72 hours
# Protocol: as §1, §2, §3
# T1 sequence (P15056 whole entry V600E): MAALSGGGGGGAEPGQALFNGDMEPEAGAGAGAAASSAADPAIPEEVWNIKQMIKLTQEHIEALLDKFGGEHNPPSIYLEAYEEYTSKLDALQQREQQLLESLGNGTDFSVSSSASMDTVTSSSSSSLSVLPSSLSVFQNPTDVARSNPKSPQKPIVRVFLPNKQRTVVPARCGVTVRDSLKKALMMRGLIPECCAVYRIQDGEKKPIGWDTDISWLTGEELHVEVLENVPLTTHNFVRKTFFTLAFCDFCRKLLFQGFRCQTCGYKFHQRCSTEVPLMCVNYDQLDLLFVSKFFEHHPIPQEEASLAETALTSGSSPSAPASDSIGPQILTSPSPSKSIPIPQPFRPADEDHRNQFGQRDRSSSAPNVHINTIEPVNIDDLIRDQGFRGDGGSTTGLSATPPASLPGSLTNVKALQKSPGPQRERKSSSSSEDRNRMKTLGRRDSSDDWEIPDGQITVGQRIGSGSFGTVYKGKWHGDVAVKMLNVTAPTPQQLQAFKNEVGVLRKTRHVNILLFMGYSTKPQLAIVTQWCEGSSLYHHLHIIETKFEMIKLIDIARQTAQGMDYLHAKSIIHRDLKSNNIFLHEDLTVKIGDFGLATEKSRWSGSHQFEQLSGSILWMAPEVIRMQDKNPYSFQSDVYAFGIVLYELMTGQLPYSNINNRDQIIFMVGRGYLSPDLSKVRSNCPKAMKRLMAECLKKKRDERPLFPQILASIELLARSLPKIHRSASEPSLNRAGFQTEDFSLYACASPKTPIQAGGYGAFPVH
IC50 (mutant B-RAF) [nM],EC50 (p-Erk (A375)) [nM],GI50 (A375) [nM],GI50 (DLD-1) [nM],GI50 (SK-MEL-28) [nM],GI50 (SK-MEL-2) [nM],melting point [°C],Structure (SMILES),GI50 (RKO) [nM],GI50 (WM-266-4) [nM]
6,2,2,3000,74,170,–,"Cn1ccc(S(=O)(=O)N2CCC[C@@H](Nc3nccc(-c4c(-c5cccc(O)c5)nc5sccn45)n3)C2)n1 [Compound 14, (R)-3-(5-(2-(1-(1-methyl-1H-pyrazol-3-ylsulfonyl)piperidin-3-ylamino)pyrimidin-4-yl)imidazo[2,1-b]thiazol-6-yl)phenol]",122,5
–,–,–,–,–,–,239 to 245,O=P(O)(O)Oc1cccc(-c2nc3sccn3c2-c2cccc(N[C@@H]3CCCN(S(=O)(=O)c4ccc(Cl)cc4)C3)c2)c1 (as salt: phosphate),–,–
48,53,< 0.4,13900,555,2040,–,"O=S(=O)(C1CC1)N1CCC(Nc2nccc(-c3c(-c4cccc(O)c4)nc4occn34)n2)CC1 [Compound 11, 3-(5-(2-(1-(cyclopropylsulfonyl)piperidin-4-ylamino)pyrimidin-4-yl)imidazo[2,1-b]oxazol-6-yl)phenol]",323,3
13,73,< 0.4,9470,393,310,–,"Cn1ccc(S(=O)(=O)N2CCC(Nc3nccc(-c4c(-c5cccc(O)c5)nc5occn45)n3)CC2)n1 [Compound 20, 3-(5-(2-(1-(1-methyl-1H-pyrazol-3-ylsulfonyl)piperidin-4-ylamino)pyrimidin-4-yl)imidazo[2,1-b]oxazol-6-yl)phenol]",372,2
48,129,< 0.4,1620,300,356,–,"O=S(=O)(c1ccc(F)cc1)N1CCC(Nc2nccc(-c3c(-c4cccc(O)c4)nc4occn34)n2)CC1 [Compound 9, 3-(5-(2-(1-(4-fluorophenylsulfonyl)piperidin-4-ylamino)pyrimidin-4-yl)imidazo[2,1-b]oxazol-6-yl)phenol]",283,< 0.4
10,35,0.54,15400,1120,1800,–,"O=S(=O)(c1ccc(Cl)cc1)N1CCC[C@@H](Nc2nccc(-c3c(-c4cccc(O)c4)nc4occn34)n2)C1 [Compound 4, (R)-3-(5-(2-(1-(4-chlorophenylsulfonyl)piperidin-3-ylamino)pyrimidin-4-yl)imidazo[2,1-b]oxazol-6-yl)phenol]",1810,15
0.96,34,< 0.4,5920,33,42.8,–,"Cn1ccc(S(=O)(=O)N2CCC[C@@H](Nc3nccc(-c4c(-c5ccc(F)c(O)c5)nc5occn45)n3)C2)n1 [Compound 22, (R)-2-fluoro-5-(5-(2-(1-(1-methyl-1H-pyrazol-3-ylsulfonyl)piperidin-3-ylamino)pyrimidin-4-yl)imidazo[2,1-b]oxazol-6-yl)phenol]",52,< 0.4
8,82,< 0.4,5520,88,519,–,"O=S(=O)(c1ccc(Cl)cc1)N1CCC(Nc2nccc(-c3c(-c4cccc(O)c4)nc4sccn34)n2)CC1 [Compound 7, 3-(5-(2-(1-(4-chlorophenylsulfonyl)piperidin-4-ylamino)pyrimidin-4-yl)imidazo[2,1-b]thiazol-6-yl)phenol]",85,6
